Measured values: ChEMBL document CHEMBL1128968, “Phosphinic acid inhibitors of matrix metalloproteinases” (Bioorg Med Chem Lett, 1996)

Legend:
Interstitial collagenase = molecular target: T1, Interstitial collagenase (Homo sapiens, UniProt P03956); assay: Inhibition of collagenase-1 (MMP-1).
T1 sequence (P03956 whole entry): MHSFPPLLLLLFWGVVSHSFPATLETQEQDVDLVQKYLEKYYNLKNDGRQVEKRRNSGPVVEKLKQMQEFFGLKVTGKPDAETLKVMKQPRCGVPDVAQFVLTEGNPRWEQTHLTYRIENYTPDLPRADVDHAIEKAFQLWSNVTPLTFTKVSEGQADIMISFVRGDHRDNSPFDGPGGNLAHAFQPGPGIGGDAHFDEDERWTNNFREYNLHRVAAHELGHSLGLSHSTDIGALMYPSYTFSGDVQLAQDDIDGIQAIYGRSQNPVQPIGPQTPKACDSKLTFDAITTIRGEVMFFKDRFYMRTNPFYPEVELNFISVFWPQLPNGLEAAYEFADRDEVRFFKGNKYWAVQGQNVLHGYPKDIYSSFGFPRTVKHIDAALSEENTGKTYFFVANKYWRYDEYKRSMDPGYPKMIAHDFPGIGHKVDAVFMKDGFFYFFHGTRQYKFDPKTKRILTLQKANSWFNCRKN

[1] = molecular target: T2, 72 kDa type IV collagenase (Homo sapiens, UniProt P08253); assay: Inhibition of gelatinase-A (MMP-2) at a concentration of 1 uM
Target sequence in this assay (P08253 110-660 limits assumed): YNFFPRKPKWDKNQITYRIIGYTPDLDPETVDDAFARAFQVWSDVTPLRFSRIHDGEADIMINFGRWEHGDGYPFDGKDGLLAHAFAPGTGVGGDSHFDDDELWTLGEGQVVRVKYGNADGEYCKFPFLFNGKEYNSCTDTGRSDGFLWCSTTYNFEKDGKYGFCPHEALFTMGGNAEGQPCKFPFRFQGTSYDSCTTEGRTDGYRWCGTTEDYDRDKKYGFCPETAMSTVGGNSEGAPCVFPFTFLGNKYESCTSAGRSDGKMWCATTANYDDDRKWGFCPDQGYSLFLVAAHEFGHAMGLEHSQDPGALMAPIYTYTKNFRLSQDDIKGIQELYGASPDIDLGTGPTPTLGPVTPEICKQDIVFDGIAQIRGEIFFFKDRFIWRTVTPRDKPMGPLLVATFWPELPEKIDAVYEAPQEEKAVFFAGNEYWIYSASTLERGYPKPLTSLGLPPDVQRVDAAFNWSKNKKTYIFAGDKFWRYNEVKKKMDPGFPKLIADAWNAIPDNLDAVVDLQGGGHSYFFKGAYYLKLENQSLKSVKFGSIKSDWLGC

Stromelysin-1 [2] = molecular target: T3, Stromelysin-1 (Homo sapiens, UniProt P08254); assay: Inhibition of stromelysin-1 (MMP-3).
[3] = molecular target: T2, 72 kDa type IV collagenase; assay: Inhibition of gelatinase-A (MMP-2).
Target sequence in this assay (P08253 whole entry): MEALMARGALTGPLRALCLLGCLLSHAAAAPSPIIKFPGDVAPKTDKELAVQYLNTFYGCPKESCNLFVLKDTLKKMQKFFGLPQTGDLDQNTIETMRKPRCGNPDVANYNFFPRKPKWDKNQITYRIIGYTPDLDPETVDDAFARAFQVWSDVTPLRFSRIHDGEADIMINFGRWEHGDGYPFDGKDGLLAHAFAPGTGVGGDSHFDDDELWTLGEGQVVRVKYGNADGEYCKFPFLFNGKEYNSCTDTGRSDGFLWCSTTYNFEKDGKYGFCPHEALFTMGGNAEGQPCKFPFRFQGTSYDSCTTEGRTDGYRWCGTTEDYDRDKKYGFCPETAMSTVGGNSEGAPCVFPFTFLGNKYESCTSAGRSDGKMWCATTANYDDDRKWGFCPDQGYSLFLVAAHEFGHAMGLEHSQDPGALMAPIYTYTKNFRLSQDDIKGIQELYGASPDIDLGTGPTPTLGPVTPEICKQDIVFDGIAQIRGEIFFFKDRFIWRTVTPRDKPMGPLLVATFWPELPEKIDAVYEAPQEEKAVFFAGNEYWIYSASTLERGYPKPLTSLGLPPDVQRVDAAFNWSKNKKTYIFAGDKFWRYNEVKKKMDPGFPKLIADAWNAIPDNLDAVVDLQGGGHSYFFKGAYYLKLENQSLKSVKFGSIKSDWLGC

Stromelysin-1 [4] = molecular target: T3, Stromelysin-1; assay: Inhibition of stromelysin-1 (MMP-3)
[5] = molecular target: T2, 72 kDa type IV collagenase; assay: Inhibition of gelatinase-A (MMP-2)
Target sequence in this assay (P08253 whole entry): as above

T3 sequence (P08254 whole entry): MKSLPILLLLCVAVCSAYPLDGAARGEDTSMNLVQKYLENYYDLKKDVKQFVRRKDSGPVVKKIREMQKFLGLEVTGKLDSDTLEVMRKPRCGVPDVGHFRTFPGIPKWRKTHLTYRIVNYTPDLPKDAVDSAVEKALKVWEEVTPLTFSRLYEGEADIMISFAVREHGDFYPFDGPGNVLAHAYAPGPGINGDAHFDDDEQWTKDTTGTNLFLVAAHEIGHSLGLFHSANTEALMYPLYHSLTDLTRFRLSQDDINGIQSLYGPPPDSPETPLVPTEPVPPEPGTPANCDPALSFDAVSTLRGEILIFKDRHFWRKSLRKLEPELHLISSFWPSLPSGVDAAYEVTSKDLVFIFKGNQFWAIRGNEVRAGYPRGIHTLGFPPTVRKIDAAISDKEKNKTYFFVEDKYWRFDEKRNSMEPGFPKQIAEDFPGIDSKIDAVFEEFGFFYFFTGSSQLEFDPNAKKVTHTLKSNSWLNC

Compound | Ki (Interstitial collagenase) [nM] | inhibition [1] [%] | Ki (Stromelysin-1 [2]) [nM] | Ki [3] [nM] | further results
CNC(=O)NCCCCP(=O)(O)C[C@@H](CCc1ccccc1)C(=O)N[C@@H](CC(C)C)C(=O)Nc1ccccc1 | ≥ 10000 | 87 | 130 | – | –
CC(C)C[C@H](NC(=O)[C@H](CCc1ccccc1)CP(=O)(O)CCCCNC(=O)Cc1ccccc1)C(=O)Nc1ccccc1 | ≥ 10000 | – | 30 | 130 | –
CC(C)C[C@H](NC(=O)[C@H](CCc1ccccc1)CP(=O)(O)CCCCNC(=O)[C@@H]1CCCN1C(=O)c1ccccc1)C(=O)Nc1ccccc1 | ≥ 10000 | – | 13 | 2.1 | –
CC(C)C[C@H](NC(=O)[C@H](CCc1ccccc1)CP(=O)(O)CCC(=O)NCCCc1ccccc1)C(=O)Nc1ccccc1 | ≥ 10000 | 46 | 670 | – | –
CC(C)C[C@H](NC(=O)[C@H](CCc1ccccc1)CP(C)(=O)O)C(=O)Nc1ccccc1 | ≥ 10000 | – | 1500 | 570 | –
CC(C)C[C@H](NC(=O)[C@H](CCc1ccccc1)CP(=O)(O)CCCCNC(=O)Nc1ccccc1)C(=O)Nc1ccccc1 | ≥ 10000 | 85 | 70 | – | –
CC(=O)N1CCC[C@H]1C(=O)NCCCCP(=O)(O)C[C@@H](CCc1ccccc1)C(=O)N[C@@H](CC(C)C)C(=O)Nc1ccccc1 | ≥ 10000 | – | 62 | 6.1 | –
COC(=O)CCP(=O)(O)C[C@@H](CCc1ccccc1)C(=O)N[C@@H](CC(C)C)C(=O)Nc1ccccc1 | ≥ 10000 | – | 520 | 1300 | –
CC(C)C[C@H](NC(=O)[C@H](Cc1ccccc1)CP(=O)(O)CCCCN1C(=O)c2ccccc2C1=O)C(=O)NCc1ccccc1 | – | – | – | – | IC50 (Interstitial collagenase): 4100 nM; IC50 (Stromelysin-1 [2]): 430 nM
CC(C)C[C@H](NC(=O)[C@H](CCc1ccccc1)CP(=O)(O)CCC(=O)Nc1ccccc1)C(=O)Nc1ccccc1 | ≥ 10000 | 60 | 470 | – | –
CC(C)C[C@H](NC(=O)[C@H](CCc1ccccc1)CP(=O)(O)CCCCNC(=O)OCc1ccccc1)C(=O)Nc1ccccc1 | ≥ 10000 | 86 | 63 | – | –
CC(C)C[C@H](NP(=O)(O)CCCCN1C(=O)c2ccccc2C1=O)C(=O)N[C@@H](Cc1c[nH]c2ccccc12)C(=O)NCc1ccccc1 | – | – | – | – | IC50 (Interstitial collagenase): 50 nM; IC50 (Stromelysin-1 [2]): 260 nM
CC(C)C[C@H](NC(=O)[C@H](Cc1ccccc1)NP(=O)(O)CCCCN1C(=O)c2ccccc2C1=O)C(=O)NCc1ccccc1 | – | – | – | – | IC50 (Interstitial collagenase): 30000 nM; IC50 (Stromelysin-1 [2]): 2800 nM
CC(C)C[C@H](NC(=O)[C@H](CCc1ccccc1)CP(=O)(O)CCC(=O)NCc1ccccc1)C(=O)Nc1ccccc1 | ≥ 10000 | – | – | – | Ki (Stromelysin-1 [4]): 540 nM
CC(=O)N1CCC[C@@H]1C(=O)NCCCCP(=O)(O)C[C@@H](CCc1ccccc1)C(=O)N[C@@H](CC(C)C)C(=O)Nc1ccccc1 | ≥ 10000 | 92 | 26 | – | –
CCNC(=O)NCCCCP(=O)(O)C[C@@H](CCc1ccccc1)C(=O)N[C@@H](CC(C)C)C(=O)Nc1ccccc1 | ≥ 10000 | – | 17 | – | Ki [5]: 19 nM
CCOC(=O)NCCCCP(=O)(O)C[C@@H](CCc1ccccc1)C(=O)N[C@@H](CC(C)C)C(=O)Nc1ccccc1 | ≥ 10000 | 94 | 16 | – | –
CC(C)C[C@H](NC(=O)[C@H](CCc1ccccc1)CP(=O)(O)CCCCNC(=O)[C@H]1CCCN1C(=O)c1ccccc1)C(=O)Nc1ccccc1 | ≥ 10000 | 89 | 24 | – | –
CC(C)C[C@H](NC(=O)[C@H](Cc1ccccc1)OP(=O)(O)CCCCN1C(=O)c2ccccc2C1=O)C(=O)NCc1ccccc1 | – | – | – | – | IC50 (Interstitial collagenase): > 32000 nM; IC50 (Stromelysin-1 [2]): > 200000 nM
CC(C)C[C@H](NC(=O)[C@H](CCc1ccccc1)CP(=O)(O)CCC(=O)NCCc1ccccc1)C(=O)Nc1ccccc1 | ≥ 10000 | 58 | 170 | – | –
CC(C)C[C@H](NC(=O)[C@H](CCc1ccccc1)CP(=O)(O)CCCCNC(=O)c1ccccc1)C(=O)Nc1ccccc1 | ≥ 10000 | – | 5.7 | 26 | –
CC(C)C[C@H](NC(=O)[C@H](CCc1ccccc1)CP(=O)(O)CCCCNC(=O)NCc1ccccc1)C(=O)Nc1ccccc1 | ≥ 10000 | 96 | 50 | – | –

Second part, led by results:

Ki (Interstitial collagenase) [nM] | inhibition [1] [%] | Ki (Stromelysin-1 [2]) [nM] | Ki [3] [nM] | Compound | further results
≥ 10000 | 73 | 56 | – | CC(C)C[C@H](NC(=O)[C@H](CCc1ccccc1)CP(=O)(O)CCCCNC(=O)Oc1ccccc1)C(=O)Nc1ccccc1 | –
≥ 10000 | – | 2.5 | 2.1 | COc1cccc(CC[C@H](CP(=O)(O)CCCCN2C(=O)c3ccccc3C2=O)C(=O)N[C@@H](CC(C)C)C(=O)Nc2ccccc2)c1 | –
≥ 10000 | 13 | 3700 | – | CC(C)C[C@H](NC(=O)[C@H](CCc1ccccc1)CP(=O)(O)CCCCN)C(=O)Nc1ccccc1 | –
≥ 10000 | – | 4.5 | 4.8 | CC(C)C[C@H](NC(=O)[C@H](CCc1ccccc1)CP(=O)(O)C/C=C/CN1C(=O)c2ccccc2C1=O)C(=O)Nc1ccccc1 | –
≥ 10000 | – | 2.3 | 12 | COc1ccc(CC[C@H](CP(=O)(O)CCCCN2C(=O)c3ccccc3C2=O)C(=O)N[C@@H](CC(C)C)C(=O)Nc2ccccc2)cc1 | –
≥ 10000 | – | 5.5 | 7.3 | CC(C)C[C@H](NC(=O)[C@H](CCc1ccccc1)CP(=O)(O)CCCCN1Cc2ccccc2C1=O)C(=O)Nc1ccccc1 | –
≥ 10000 | – | – | 20 | CC(C)C[C@H](NC(=O)[C@H](CCc1ccccc1)CP(=O)(O)CCCCN1C(=O)c2ccccc2C1=O)C(=O)Nc1ccccc1 | –
– | – | 410 | – | CC(C)C[C@H](NC(=O)[C@H](CCc1ccccc1)CP(=O)(O)CNC(=O)CN1C(=O)c2ccccc2C1=O)C(=O)Nc1ccccc1 | –
≥ 10000 | 90 | 54 | – | COC(=O)NCCCCP(=O)(O)C[C@@H](CCc1ccccc1)C(=O)N[C@@H](CC(C)C)C(=O)Nc1ccccc1 | –
≥ 10000 | – | 440 | 4400 | COc1ccccc1CC[C@H](CP(=O)(O)CCCCN1C(=O)c2ccccc2C1=O)C(=O)N[C@@H](CC(C)C)C(=O)Nc1ccccc1 | –
